Measurements: patent publication US20190031667A1, “PESTICIDALLY ACTIVE HETEROCYCLIC DERIVATIVES WITH SULPHUR CONTAINING SUBSTITUENTS” (SYNGENTA PARTICIPATIONS AG, priority 2016, published 2019)

Tests used:
Assay type in all cases: in vivo
[1] = test system: Bemisia tabaci (Cotton White Fly); test: Example B7: Activity against Bemisia tabaci, sprayed cotton leaf discs; settings: foliar, 144 h, application rate 200 ppm, adult white flies, 6 days after incubation
Experimental: Example B7: Activity Against Bemisia tabaci (Cotton White Fly)
Cotton leaf discs were placed onto agar in 24-well microtiter plates and sprayed with aqueous test solutions prepared from 10′000 ppm DMSO stock solutions. After drying the leaf discs were infested with adult white flies. The samples were checked for mortality 6 days after incubation.

[2] = test system: Myzus persicae (Green Peach Aphid); test: Example B5: Activity against Myzus persicae, sprayed sunflower leaf discs; settings: foliar, 144 h, application rate 200 ppm, mixed-age aphids, 6 days after infestation
Experimental: Example B5: Activity Against Myzus persicae (Green Peach Aphid)
Sunflower leaf discs were placed onto agar in a 24-well microtiter plate and sprayed with aqueous test solutions prepared from 10′000 ppm DMSO stock solutions. After drying, the leaf discs were infested with an aphid population of mixed ages. The samples were assessed for mortality 6 days after infestation.

[3] = test system: Plutella xylostella (Diamond Back Moth); test: Example B3: Activity against Plutella xylostella, artificial diet; settings: 120 h, application rate 200 ppm, L2 larvae, 5 days after infestation, read-out: effect in at least one of the two categories (mortality or growth inhibition)
Experimental: Example B3: Activity Against Plutella xylostella (Diamond Back Moth)
(§1) 24-well microtiter plates with artificial diet were treated with aqueous test solutions prepared from 10′000 ppm DMSO stock solutions by pipetting. After drying, the plates were infested with L2 larvae (10 to 15 per well). The samples were assessed for mortality and growth inhibition in comparison to untreated samples 5 days after infestation.

[4] = test system: Spodoptera littoralis (Egyptian cotton leaf worm); test: Example B1: Activity against Spodoptera littoralis, sprayed cotton leaf discs; settings: foliar, 72 h, application rate 200 ppm, L1 larvae, 3 days after infestation
Experimental: Example B1: Activity against Spodoptera littoralis (Egyptian cotton leaf worm) Cotton leaf discs were placed onto agar in 24-well microtiter plates and sprayed with aqueous test solutions prepared from 10′000 ppm DMSO stock solutions. After drying the leaf discs were infested with five L1 larvae. The samples were assessed for mortality, anti-feeding effect, and growth inhibition in comparison to untreated samples 3 days after infestation. Control of Spodoptera littoralis by a test sample is given when at least one of the categories mortality, anti-feedant effect, and growth inhibition is higher than the untreated sample.

[5] = test system: Diabrotica Balteata (Corn Root Worm); test: Example B4: Activity against Diabrotica balteata, sprayed maize sprouts; settings: 96 h, application rate 200 ppm, L2 larvae, 4 days after infestation, read-out: effect in at least one of the two categories (mortality or growth inhibition)
Experimental: Example B4: Activity Against Diabrotica Balteata (Corn Root Worm)
as §1, with “Maize sprouts, placed onto an agar layer in 24-well” for “24-well”, “plates” for “plates with artificial diet”, “spraying.” for “pipetting.”, “(6” for “(10”, “10” for “15”, “4” for “5”

[6] = test system: Euschistus heros (Neotropical Brown Stink Bug); test: Example B8: Activity against Euschistus heros, sprayed soybean leaves; settings: 120 h, application rate 200 ppm, N2 nymphs, 5 days after infestation, read-out: effect in at least one of the two categories (mortality or growth inhibition)
Experimental: Example B8: Activity Against Euschistus heros (Neotropical Brown Stink Bug)
Soybean leaves on agar in 24-well microtiter plates were sprayed with aqueous test solutions prepared from 10′000 ppm DMSO stock solutions. After drying the leaves were infested with N2 nymphs. The samples were assessed for mortality and growth inhibition in comparison to untreated samples 5 days after infestation.

[7] = test system: Myzus persicae (Green Peach Aphid); test: Example B6: Activity against Myzus persicae, systemic via pea seedling roots; settings: 144 h, test rate 24 ppm, roots of infested pea seedlings in test solution, 6 days
Experimental: Example B6: Activity Against Myzus persicae (Green Peach Aphid)
Roots of pea seedlings infested with an aphid population of mixed ages were placed directly in the aqueous test solutions prepared from 10′000 DMSO stock solutions. The samples were assessed for mortality 6 days after placing seedlings in test solutions.

[8] = test system: Spodoptera littoralis (Egyptian cotton leaf worm); test: Example B2: Activity against Spodoptera littoralis, systemic via lettuce roots in agar; settings: 144 h, test rate 12.5 ppm, uptake by lettuce roots from agar, 6 days after infestation, read-out: effect in at least one of the three categories (mortality, anti-feeding, or growth inhibition)
Source text: Example B2: Activity against Spodoptera littoralis (Egyptian cotton leaf worm) Test compounds were applied by pipette from 10′000 ppm DMSO stock solutions into 24-well plates and mixed with agar. Lettuce seeds were placed onto the agar and the multi well plate was closed by another plate which contained also agar. After 7 days the compound was absorbed by the roots and the lettuce grew into the lid plate. The lettuce leaves were then cut off into the lid plate. Spodoptera eggs were pipetted through a plastic stencil onto a humid gel blotting paper and the lid plate was closed with it. The samples were assessed for mortality, anti-feedant effect and growth inhibition in comparison to untreated samples 6 days after infestation.

CCS(=O)(=O)c1ccc(-n2cnc(Cl)n2)nc1-n1cc2cnc(C(F)(F)F)cc2n1 [Compound P25]
≥ 80%: mortality at 200 ppm [1] | mortality at 200 ppm [2] | percent effect (mortality or growth inhibition) at 200 ppm [3] | percent control (mortality, anti-feedant effect or growth inhibition) at 200 ppm [4] | percent effect (mortality or growth inhibition) at 200 ppm [5] | percent effect (mortality or growth inhibition) at 200 ppm [6]

CCS(=O)(=O)c1ccc(N)nc1-n1cc2cnc(C(F)(F)F)cc2n1 [Compound P16, 5-ethylsulfonyl-6-[6-(trifluoromethyl)pyrazolo[4,3-c]pyridin-2-yl]pyridin-2-amine]
≥ 80%: mortality at 24 ppm [7] | mortality at 200 ppm [2] | percent effect (mortality or growth inhibition) at 200 ppm [3] | percent control (mortality, anti-feedant effect or growth inhibition) at 200 ppm [4] | percent effect (mortality, anti-feeding or growth inhibition) at 12.5 ppm [8] | percent effect (mortality or growth inhibition) at 200 ppm [5] | percent effect (mortality or growth inhibition) at 200 ppm [6]

CCS(=O)(=O)c1ccc(NC)nc1-n1cc2cnc(C(F)(F)F)cc2n1 [Compound P15]
≥ 80%: mortality at 200 ppm [2] | percent effect (mortality or growth inhibition) at 200 ppm [3] | percent control (mortality, anti-feedant effect or growth inhibition) at 200 ppm [4] | percent effect (mortality, anti-feeding or growth inhibition) at 12.5 ppm [8] | percent effect (mortality or growth inhibition) at 200 ppm [5] | percent effect (mortality or growth inhibition) at 200 ppm [6]

CCS(=O)(=O)c1ccc(-n2cccn2)nc1-n1nc2cc(C(F)(F)F)ncc2c1Cl [Compound P11]
≥ 80%: mortality at 200 ppm [1]
